Blank lines part the entries; values can stand above or below the compound they belong to.
Key:
[1] = biological target: T1, Epidermal growth factor receptor (Homo sapiens, UniProt P00533, C797S/L858R/T790M); test: Inhibition of EGFR L858R/T790M/C797S triple mutant (unknown origin) at 20 nM relative to control
cells = settings: Mus musculus, Ba/F3 EGFR-T790M/C797S/L858R
[2] = Antiproliferative activity against mouse Ba/F3 EGFR-Del19/T790M/C797S cells; type: functional, cell-based
A549 = test: Antiproliferative activity against human A549 cells; type: functional, cell-based
[3] = system: Epidermal growth factor receptor (Homo sapiens), P00533 [L858R,T790M,C797S]; settings: dose 0.05 nM
[4] = system: Epidermal growth factor receptor (Homo sapiens), P00533 [L858R,T790M,C797S]; settings: dose 1.0 nM
[5] = Antiproliferative activity against mouse Ba/F3 EGFR-T790M/C797S/L858R cells assessed as reduction in cell growth incubated for 72 hrs by CCK-8 assay; type: functional, cell-based
[6] = Antiproliferative activity against mouse Ba/F3 EGFR-Del19/T790M/C797S cells assessed as reduction in cell growth incubated for 72 hrs by CCK-8 assay; type: functional, cell-based
NIH3T3 [7] = test: Antiproliferative activity against mouse NIH3T3 cells harboring EGFR del19/T790M/C797S assessed as reduction in cell growth measured for 4 to 7 days by CellTiter-Glo Luminescent assay; type: functional, cell-based
[8] = Antiproliferative activity against mouse Ba/F3 EGFR cells; type: functional, cell-based
NIH3T3 [9] = test: Antiproliferative activity against mouse NIH3T3 cells harboring EGFR L858R/T790M/C797S assessed as reduction in cell growth measured for 4 to 7 days by CellTiter-Glo Luminescent assay; type: functional, cell-based
[10] = biological target: T2, Epidermal growth factor receptor (Homo sapiens, UniProt P00533); test: Inhibition of wild type EGFR (unknown origin)
[11] = Antiproliferative activity against mouse Ba/F3 EGFR-Del19/T790M/C797S cells assessed as reduction in cell viability at 10 uM incubated for 72 hrs by MTT assay relative to control; type: functional
[12] = Antiproliferative activity against human NCI-H1975 EGFR T790M/C797S/L858R cells; type: functional, cell-based
[13] = biological target: T1, Epidermal growth factor receptor; test: Inhibition of EGFR L858R/T790M/C797S triple mutant (unknown origin)
[14] = biological target: Epidermal growth factor receptor (Homo sapiens, UniProt P00533, L858R/T790M); test: Inhibition of EGFR L858R/T790M double mutant (unknown origin)
[15] = biological target: Epidermal growth factor receptor (Homo sapiens, UniProt P00533, C797S/EX19DEL/T790M); test: Inhibition of EGFR Del19/T790M/C797S triple mutant (unknown origin)
[16] = system: Epidermal growth factor receptor (Homo sapiens), P00533 [L858R,T790M,C797S]; settings: dose 200.0 nM, tested as the 2H-labelled form
[17] = biological target: T2, Epidermal growth factor receptor; test: Inhibition of wild type EGFR (unknown origin) by HTRF assay

T2 sequence (P00533 whole entry): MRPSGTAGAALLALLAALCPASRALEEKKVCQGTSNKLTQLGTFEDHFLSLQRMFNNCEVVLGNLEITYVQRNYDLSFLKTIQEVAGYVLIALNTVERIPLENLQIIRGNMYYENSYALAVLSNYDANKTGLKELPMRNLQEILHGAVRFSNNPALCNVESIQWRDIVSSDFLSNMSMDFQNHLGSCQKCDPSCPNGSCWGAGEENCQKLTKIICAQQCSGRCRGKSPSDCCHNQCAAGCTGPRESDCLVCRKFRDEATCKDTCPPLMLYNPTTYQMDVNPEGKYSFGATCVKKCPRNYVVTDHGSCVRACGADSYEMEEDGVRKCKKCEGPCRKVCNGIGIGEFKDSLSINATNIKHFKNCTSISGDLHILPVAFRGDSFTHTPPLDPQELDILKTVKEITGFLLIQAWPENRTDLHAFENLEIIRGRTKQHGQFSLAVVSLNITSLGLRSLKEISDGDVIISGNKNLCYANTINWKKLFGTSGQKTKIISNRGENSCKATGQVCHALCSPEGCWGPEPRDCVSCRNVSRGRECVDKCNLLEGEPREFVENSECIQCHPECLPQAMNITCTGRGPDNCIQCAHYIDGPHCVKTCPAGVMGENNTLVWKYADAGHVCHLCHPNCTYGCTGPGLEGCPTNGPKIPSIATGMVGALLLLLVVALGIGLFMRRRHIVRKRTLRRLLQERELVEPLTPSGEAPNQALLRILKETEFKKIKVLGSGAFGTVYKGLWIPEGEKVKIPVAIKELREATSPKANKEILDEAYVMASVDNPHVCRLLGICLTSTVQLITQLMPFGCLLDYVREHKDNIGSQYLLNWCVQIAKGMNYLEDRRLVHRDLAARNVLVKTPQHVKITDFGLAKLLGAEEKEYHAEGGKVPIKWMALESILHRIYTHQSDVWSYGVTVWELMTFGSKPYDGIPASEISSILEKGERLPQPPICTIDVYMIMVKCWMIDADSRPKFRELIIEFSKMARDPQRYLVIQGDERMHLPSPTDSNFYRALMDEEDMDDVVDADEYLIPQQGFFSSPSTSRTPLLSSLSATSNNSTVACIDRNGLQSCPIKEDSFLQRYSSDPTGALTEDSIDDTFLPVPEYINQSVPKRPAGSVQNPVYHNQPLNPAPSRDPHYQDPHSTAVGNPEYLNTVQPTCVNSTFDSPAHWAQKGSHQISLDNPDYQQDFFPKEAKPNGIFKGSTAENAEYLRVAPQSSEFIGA
Sequence of Epidermal growth factor receptor (Homo sapiens), P00533 [L858R,T790M,C797S] (P00533 whole entry T790M/C797S/L858R): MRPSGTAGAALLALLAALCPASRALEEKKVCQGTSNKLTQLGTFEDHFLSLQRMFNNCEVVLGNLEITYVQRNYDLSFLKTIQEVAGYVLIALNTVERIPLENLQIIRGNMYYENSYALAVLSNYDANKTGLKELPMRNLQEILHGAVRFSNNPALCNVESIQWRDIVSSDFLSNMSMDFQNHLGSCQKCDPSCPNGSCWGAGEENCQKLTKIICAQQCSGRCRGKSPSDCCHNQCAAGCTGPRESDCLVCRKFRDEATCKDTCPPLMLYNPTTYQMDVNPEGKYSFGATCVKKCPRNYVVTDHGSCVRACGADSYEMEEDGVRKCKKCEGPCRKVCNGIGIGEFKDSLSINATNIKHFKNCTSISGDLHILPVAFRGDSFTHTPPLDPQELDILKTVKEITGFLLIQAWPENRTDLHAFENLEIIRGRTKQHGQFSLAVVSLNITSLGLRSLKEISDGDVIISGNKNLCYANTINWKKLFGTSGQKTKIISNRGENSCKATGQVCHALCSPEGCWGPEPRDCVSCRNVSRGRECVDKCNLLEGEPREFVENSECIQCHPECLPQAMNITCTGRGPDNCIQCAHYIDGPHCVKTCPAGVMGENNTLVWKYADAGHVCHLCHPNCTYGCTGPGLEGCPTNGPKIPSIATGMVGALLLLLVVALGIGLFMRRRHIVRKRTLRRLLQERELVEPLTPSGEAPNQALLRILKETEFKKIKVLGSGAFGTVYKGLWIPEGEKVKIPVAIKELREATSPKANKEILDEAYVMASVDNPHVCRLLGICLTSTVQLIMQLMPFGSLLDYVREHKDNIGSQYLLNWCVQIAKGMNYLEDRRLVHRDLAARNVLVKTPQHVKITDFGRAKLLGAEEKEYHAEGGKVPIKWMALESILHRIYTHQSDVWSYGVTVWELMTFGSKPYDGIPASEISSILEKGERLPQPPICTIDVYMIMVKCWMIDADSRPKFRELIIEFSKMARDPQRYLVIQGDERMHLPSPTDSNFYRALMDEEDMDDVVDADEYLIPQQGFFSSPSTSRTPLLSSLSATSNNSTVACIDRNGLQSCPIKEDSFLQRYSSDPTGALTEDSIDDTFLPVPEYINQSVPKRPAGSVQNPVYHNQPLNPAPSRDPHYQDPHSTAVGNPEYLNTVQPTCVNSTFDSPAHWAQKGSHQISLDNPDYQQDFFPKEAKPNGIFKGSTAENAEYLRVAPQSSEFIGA
T1 sequence (P00533 25-1210 T790M/C797S/L858R limits assumed): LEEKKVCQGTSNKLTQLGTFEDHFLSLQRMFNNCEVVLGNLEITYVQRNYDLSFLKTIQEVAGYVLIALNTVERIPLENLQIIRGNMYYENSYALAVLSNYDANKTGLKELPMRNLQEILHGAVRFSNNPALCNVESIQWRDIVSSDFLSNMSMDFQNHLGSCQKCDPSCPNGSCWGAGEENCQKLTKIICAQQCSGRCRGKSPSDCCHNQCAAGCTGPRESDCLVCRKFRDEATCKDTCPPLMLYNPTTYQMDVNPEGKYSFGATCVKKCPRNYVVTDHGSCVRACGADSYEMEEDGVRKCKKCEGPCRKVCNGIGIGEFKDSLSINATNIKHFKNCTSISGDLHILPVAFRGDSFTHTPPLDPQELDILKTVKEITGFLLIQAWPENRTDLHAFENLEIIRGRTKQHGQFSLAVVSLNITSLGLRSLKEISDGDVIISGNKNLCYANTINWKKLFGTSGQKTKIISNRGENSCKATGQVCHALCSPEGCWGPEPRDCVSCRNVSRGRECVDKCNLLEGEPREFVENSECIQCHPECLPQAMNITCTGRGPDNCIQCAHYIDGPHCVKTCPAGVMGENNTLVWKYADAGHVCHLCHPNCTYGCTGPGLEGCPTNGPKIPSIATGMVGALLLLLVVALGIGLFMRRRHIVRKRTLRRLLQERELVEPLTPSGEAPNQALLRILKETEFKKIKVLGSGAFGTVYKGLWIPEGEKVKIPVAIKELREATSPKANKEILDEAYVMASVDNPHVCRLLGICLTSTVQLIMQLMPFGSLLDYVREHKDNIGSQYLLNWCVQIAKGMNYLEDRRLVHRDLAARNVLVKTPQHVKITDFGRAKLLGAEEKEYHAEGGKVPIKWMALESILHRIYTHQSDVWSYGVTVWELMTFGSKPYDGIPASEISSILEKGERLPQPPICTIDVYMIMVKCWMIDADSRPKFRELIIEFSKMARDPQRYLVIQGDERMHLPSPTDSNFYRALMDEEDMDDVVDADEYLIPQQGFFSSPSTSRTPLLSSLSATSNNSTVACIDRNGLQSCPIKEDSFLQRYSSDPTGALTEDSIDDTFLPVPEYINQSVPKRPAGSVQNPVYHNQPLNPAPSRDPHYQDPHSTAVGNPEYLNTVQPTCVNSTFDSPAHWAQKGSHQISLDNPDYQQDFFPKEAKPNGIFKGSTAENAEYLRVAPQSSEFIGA
Sequence of Epidermal growth factor receptor (Homo sapiens, UniProt P00533, C797S/EX19DEL/T790M) (P00533 whole entry, looked up, stated change not applied): as the sequence (P00533 whole entry) above

Compound: [2H]C([2H])([2H])c1cc(Nc2ncc(Br)c(Nc3ccccc3NS(=O)(=O)C3CC3)n2)ccc1N1CCN(C([2H])([2H])[2H])CC1
- inhibition [1]: 97.2%
- IC50 (cells): 16 nM
- IC50 [2]: 12 nM
- IC50 (A549): 957 nM

Compound: CN1CCN(c2ccc(Nc3ncc(Cl)c(Nc4ccccc4P(C)(C)=O)n3)cc2Br)CC1
- IC50 [5]: 90 nM
- IC50 [6]: 120 nM

Compound: C=CC(=O)Nc1cc(Nc2nccc(-c3cn(C)c4ccccc34)n2)c(OC)cc1N(C)CCN(C)C [OSIMERTINIB]
- IC50 (NIH3T3 [7]): 1200 nM
- IC50 [5]: 4140 nM
- IC50 [6]: 3380 nM
- IC50 [8]: 171 nM
- IC50 (NIH3T3 [9]): 2700 nM
- IC50 (cells): > 1000 nM
- IC50 [2]: > 1000 nM

Compound: CCC(=O)N[C@H]1CC[C@@H](N2C(=O)N(c3ccccc3Cl)Cc3cnc(Nc4ccc(N5CCN(C)CC5)c(C)c4)nc32)CC1
- IC50 [5]: 320 nM

Compound: N#Cc1ccc(O)c(-c2nc(NCc3cccnc3)c3ccccc3n2)c1
- IC50 [10]: > 50 nM

Compound: CCc1cc(Nc2ncc(Cl)c(Nc3ccc(C)c(C)c3P(C)(C)=O)n2)c(OC)cc1N1CC2(CCN(C)CC2)C1
- IC50 [8]: > 1000 nM
- IC50 (cells): 43.3 nM
- IC50 [2]: 128 nM

Compound: Oc1ccccc1-c1nc(NCC2CCOC2)c2ccccc2n1 (stereo not drawn)
- Activity [11]: 91%

Compound: N#Cc1ccc(O)c(-c2nc(NCc3ncccn3)c3ccccc3n2)c1
- IC50 [12]: 1200 nM

Compound: C=CC(=O)C1CCC[C@@H](n2nc(-c3ccc4ccccc4c3)c3c(N)ncnc32)C1 (stereo partly drawn)
- IC50 [10]: 16 nM
- IC50 [13]: 88 nM

Compound: CN1CCC(c2ccc(-c3ccc4c(c3)C(=O)N(C(C(=O)Nc3nccs3)c3cc(F)ccc3O)C4)cc2)CC1 (stereo not drawn)
- IC50 [14]: 0.063 nM
- IC50 [13]: 0.083 nM

Second part, led by results:

- inhibition [3]: 4.82%
- IC50 (cells): 15.6 nM
- inhibition [4]: 57%
Compound: COc1cc(N2CCC(N3CCN(C)CC3)CC2)ccc1Nc1ncc(Cl)c(Nc2ccccc2P(C)(C)=O)n1 [BRIGATINIB]
- IC50 [2]: 139 nM

- IC50 [10]: 184 nM
- IC50 [13]: 8 nM
- IC50 [15]: 5 nM
Compound: COc1cc(N2CCC(N3CCN(C)CC3)CC2)ccc1Nc1ncc(Cl)c(Nc2ccccc2NS(C)(=O)=O)n1

- inhibition ([3]; tested as the 2H-labelled form): 59%
- inhibition [16]: 99%
- inhibition ([4]; tested as the 2H-labelled form): 86.9%
Compound: Cc1cc(Nc2ncc(Br)c(Nc3ccccc3NS(=O)(=O)C3CC3)n2)ccc1N1CCN(C)CC1

- IC50 [17]: 0.4 nM
Compound: CCC(=O)Nc1cccc(-c2c(-c3ccc(N4CCN(C)CC4)cc3)[nH]c3ncnc(OCC(C)C)c23)c1

- IC50 [10]: 0.92 nM
Compound: CC(C)n1c2cc(Nc3ccnc(-c4cnn(S(=O)(=O)C5CC5)c4)n3)ncc2c2c(OCC(F)(F)F)cc(N3CCN(C)CC3)cc21
- IC50 (NIH3T3 [7]): 20 nM
- IC50 (NIH3T3 [9]): 45 nM
